Results: paper PMC6556873, “Rapid Covalent-Probe Discovery by Electrophile-Fragment Screening” (Journal of the American Chemical Society, 2019)
Like-named read-outs stand apart in the source and are kept apart here.

What was measured:
in vitro [1] = test: in vitro; parameters: species or system CCD841, HEK293; details: human, hb2 cells, read-out: HB-2 Cells Viability (%)
NUDT7 = biological target: T1, NUDT7 (Homo sapiens, UniProt P0C024); parameters: Intact protein LC/MS covalent labelling, fragments in pools of five, 200 uM each, 4 °C; details: 24 h, 4 °C, pool of five; 200 µM; covalent
T1 construct: residues 14-235, E. coli, pNIC28-Bsa4, N-terminal His6 tag removed by TEV, construct 26672 Da

PCAF = biological target: T2, PCAF (Homo sapiens, UniProt Q92831); parameters: Intact protein LC/MS covalent labelling, fragments in pools of five, 200 uM each, 4 °C; details: 24 h, 4 °C, pool of five; 200 µM; covalent
T2 construct: gene KAT2B

BSA = biological target: T3, BSA (Bos taurus, UniProt P02769); parameters: Intact protein LC/MS covalent labelling, fragments in pools of five, 200 uM each, 4 °C; details: 24 h, 4 °C, pool of five; 200 µM; covalent
T3 construct: gene ALB

OTUB2 (OTUB2A) = biological target: T4, OTUB2 (OTUB2A) (Homo sapiens, UniProt Q96DC9); parameters: Intact protein LC/MS covalent labelling, fragments in pools of five, 200 uM each, 4 °C; details: 24 h, 4 °C, pool of five; 200 µM; covalent
T4 construct: full length residues 1-234, E. coli BL21(DE3)-R3, His tag removed by TEV, construct 27312 Da
T4 sequence (Q96DC9 1-234): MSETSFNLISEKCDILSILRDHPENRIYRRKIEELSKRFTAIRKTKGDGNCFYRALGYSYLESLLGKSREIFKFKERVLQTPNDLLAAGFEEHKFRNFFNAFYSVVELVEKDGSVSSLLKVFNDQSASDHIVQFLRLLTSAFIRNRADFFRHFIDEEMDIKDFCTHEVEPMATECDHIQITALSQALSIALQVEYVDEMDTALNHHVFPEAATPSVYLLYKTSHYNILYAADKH

in vitro [2] = test: in vitro; parameters: species or system HB2, HEK293; details: human, ccd841 cells
in vitro [3] = test: in vitro; parameters: species or system HB2, CCD841; details: human, hek293 cells

T3 sequence (P02769 whole entry, the tested form may be a part): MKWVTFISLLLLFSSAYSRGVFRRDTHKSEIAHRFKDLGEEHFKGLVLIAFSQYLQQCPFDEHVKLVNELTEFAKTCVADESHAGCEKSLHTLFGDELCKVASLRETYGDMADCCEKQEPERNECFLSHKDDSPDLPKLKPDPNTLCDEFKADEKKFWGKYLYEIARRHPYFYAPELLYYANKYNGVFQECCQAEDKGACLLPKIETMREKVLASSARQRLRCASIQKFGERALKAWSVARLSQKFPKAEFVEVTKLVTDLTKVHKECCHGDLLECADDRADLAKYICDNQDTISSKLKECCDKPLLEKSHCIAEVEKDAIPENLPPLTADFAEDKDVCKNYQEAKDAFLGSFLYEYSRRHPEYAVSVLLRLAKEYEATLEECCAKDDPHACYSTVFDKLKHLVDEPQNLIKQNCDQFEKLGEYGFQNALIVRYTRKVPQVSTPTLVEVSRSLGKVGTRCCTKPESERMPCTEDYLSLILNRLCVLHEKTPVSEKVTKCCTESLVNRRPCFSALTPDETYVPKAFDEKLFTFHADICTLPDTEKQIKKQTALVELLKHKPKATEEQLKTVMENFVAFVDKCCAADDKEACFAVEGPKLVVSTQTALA
T2 sequence (Q92831 whole entry, the tested form may be a part): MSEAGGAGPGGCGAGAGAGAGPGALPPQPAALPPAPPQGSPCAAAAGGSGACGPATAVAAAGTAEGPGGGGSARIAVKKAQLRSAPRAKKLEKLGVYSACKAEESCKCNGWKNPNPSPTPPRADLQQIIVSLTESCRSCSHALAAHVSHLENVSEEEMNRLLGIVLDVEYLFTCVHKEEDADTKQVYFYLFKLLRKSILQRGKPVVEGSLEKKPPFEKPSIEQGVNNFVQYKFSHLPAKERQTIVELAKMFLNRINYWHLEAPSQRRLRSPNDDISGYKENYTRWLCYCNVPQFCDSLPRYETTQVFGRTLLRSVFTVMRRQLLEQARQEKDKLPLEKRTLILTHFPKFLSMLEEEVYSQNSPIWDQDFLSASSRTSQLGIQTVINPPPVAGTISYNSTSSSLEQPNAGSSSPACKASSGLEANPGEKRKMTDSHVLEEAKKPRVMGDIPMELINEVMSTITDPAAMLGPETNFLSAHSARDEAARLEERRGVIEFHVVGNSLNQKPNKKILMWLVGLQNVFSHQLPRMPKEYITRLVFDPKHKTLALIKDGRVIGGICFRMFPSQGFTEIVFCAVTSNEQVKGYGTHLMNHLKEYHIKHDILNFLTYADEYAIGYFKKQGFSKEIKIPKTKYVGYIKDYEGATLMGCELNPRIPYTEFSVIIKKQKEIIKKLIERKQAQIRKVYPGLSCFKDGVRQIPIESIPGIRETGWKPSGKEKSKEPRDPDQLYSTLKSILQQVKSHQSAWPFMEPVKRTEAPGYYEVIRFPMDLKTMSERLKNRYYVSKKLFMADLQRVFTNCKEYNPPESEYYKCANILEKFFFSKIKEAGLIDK
T1 sequence (P0C024 14-235): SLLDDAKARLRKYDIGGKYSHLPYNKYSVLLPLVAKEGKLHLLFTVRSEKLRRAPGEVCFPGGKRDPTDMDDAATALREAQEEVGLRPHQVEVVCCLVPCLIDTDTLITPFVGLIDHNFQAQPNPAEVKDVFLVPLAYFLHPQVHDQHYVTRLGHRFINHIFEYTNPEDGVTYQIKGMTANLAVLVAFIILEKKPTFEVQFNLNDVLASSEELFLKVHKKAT

Compound | viability at 48 h, 10 µM (in vitro [1]) [%] | NUDT7 (NUDT7) | PCAF (PCAF) | BSA (BSA) | OTUB2 (OTUB2 (OTUB2A)) | viability at 48 h, 10 µM (in vitro [2]) [%] | viability at 48 h, 10 µM (in vitro [3]) [%]
CC(NC(=O)CCl)c1cccc2ccccc12 (stereo not drawn) [PCM-0102275] | 61.6 | 0.32 | 0 | 0 | 0.73 | 70.5 | 47.3
C=CC(=O)N1CCCN(S(=O)(=O)c2cccc3cnccc23)CC1 [PCM-0102491] | 99.3 | 0 | 0 | 0 | 0 | 100 | 99.9
O=C(CCl)N1c2ccccc2OCC1c1ccccc1 (stereo not drawn) [PCM-0102266] | 56.8 | 0.11 | 0 | 0 | 0 | 57.5 | 52.1
O=C(CCl)N=c1sccn1Cc1ccccc1Cl [PCM-0102550] | 27.2 | 0.11 | 0 | 0 | 0 | 3.8 | 6
O=C(CCl)NC(=O)c1cccs1 [PCM-0102222] | 110 | 0 | 0 | 0.2 | 0 | 105 | 109
CC(NC(=O)CCl)c1ccccc1Br (stereo not drawn) [PCM-0102256] | 39 | 0.19 | 0 | 0 | 0.29 | 67.3 | 27.3
C=CC(=O)N1CCCC(c2ncc3n2CCCC3)C1 (stereo not drawn) [PCM-0103042] | 95.6 | 0 | 0 | 0.11 | 0 | 108 | 97.1
C=CC(=O)NCC1=CCCOC1 [PCM-0102448] | 102 | 0.05 | 0 | 0 | 0 | 104 | 79.4
N#CC(c1ccccc1)N1CCN(C(=O)CCl)CC1 (stereo not drawn) [PCM-0102381] | 46.7 | 0.11 | 0 | 0 | 0 | 66.2 | 31.9
CN(CC(=O)NC(C)(C)C)C(=O)CCl [PCM-0102259] | 97.2 | 0 | 0 | 0 | 0 | 85.2 | 69
O=C(CCl)N1N=C(c2ccco2)CC1c1ccsc1 (stereo not drawn) [PCM-0102659] | 15.3 | 0.39 | 0 | 0 | 0 | 15.6 | 3.5
Cc1ccc(N(C(=O)CCl)C2C=CS(=O)(=O)C2)cc1C (stereo not drawn) [PCM-0103082] | 19.6 | 0.15 | 0 | 0 | 0 | 10.5 | 4.1
C=CC(=O)NC1(CO)Cc2ccccc2C1 [PCM-0102446] | 101 | 0.38 | 0 | 0 | 0 | 103 | 88.4
COc1ccc(NC(=O)CCl)cn1 [PCM-0102140] | 62 | 0 | 0 | 0 | 0 | 63.7 | 44.3
C=CC(=O)NC1CCOC2(CCS(=O)(=O)C2)C1 (stereo not drawn) [PCM-0102645] | 102 | 0 | 0 | 0 | 0 | 115 | 110
C=CC(=O)N1CCN(C(=O)c2ccc(Br)o2)CC1 [PCM-0102804] | 93.5 | 0 | 0 | 0 | 0 | 102 | 84.7
CC(C)N(C(=O)CCl)C1CCCCC1 [PCM-0102941] | 85.7 | 0.17 | 0 | 0.3 | 0 | 26 | 56.3
CC(C)c1cc(NC(=O)CCl)on1 [PCM-0102132] | 70.9 | 0 | 0 | 0 | 0 | 69.9 | 70.6
C=CC(=O)N1CCN(c2cc(C)nc(C)n2)CC1 [PCM-0102806] | 101 | 0 | 0 | 0 | 0 | 105 | 78.9
C=CC(=O)N1CCCC(CC(=O)OC(C)(C)C)CC1 (stereo not drawn) [PCM-0102609] | 106 | 0 | 0 | 0 | 0.06 | 104 | 90.6
CC(NC(=O)CCl)C(=O)N1CCCCC1 (stereo not drawn) [PCM-0102598] | 101 | 0 | 0 | 0 | 0 | 99.9 | 98.7
C=CC(=O)N1Cc2ccccc2OC(C)(C)C1 [PCM-0102927] | 104 | 0 | 0 | 0 | 0 | 111 | 93.4
O=C(Nc1ccccc1)C1CCN(C(=O)CCl)CC1 [PCM-0102219] | 5.6 | 0 | 0 | 0 | 0 | 34.2 | 5.6
O=C(CCl)NNC(=O)c1ccc(F)cc1 [PCM-0102430] | 94.9 | 0 | 0 | 0 | 0.31 | 93.2 | 93.4
